Tested on: diplopia and ptosis
Assay: Case report: patient with vertical diplopia and right ptosis treated orally
Assay type: in vivo, human
Source text: A person presented with a three-week history of vertical diplopia that was incomitant and right ptosis.

| Structure (SMILES) | relief of diplopia and ptosis (patient, three-week history of vertical diplopia and right ptosis, 60 mg three times daily) | resolution of diplopia and ptosis (same patient, after Mestinon failure, 25 mg tab four times daily) | time to resolution of diplopia and ptosis (same patient, 25 mg tab four times daily) |
| --- | --- | --- | --- |
| CN(C)C(=O)Oc1ccc[n+](C)c1 [Mestinon] | failed to relieve the diplopia or the ptosis | – | – |
| CCCc1nn(C)c2c(=O)[nH]c(-c3cc(S(=O)(=O)N4CCN(C)CC4)ccc3OCC)nc12 [Sildenafil] | – | immediate resolution of dipolopia and ptosis | ≤ 24 h |

Source: US6413968B1, “Treatment of myasthenia gravis by cyclic nucleotide phosphodiesterase inhibition” (priority 2000, dated 2002)
